Results taken from patent publication US20130273567A1, “Screening Method for Candidate Agonist Compounds for Adiponectin Receptor I” (priority 2010, published 2013).

What was measured:
[1] = test system: muscle-R1KO mice; assay: Treatment of muscle-R1KO mice with AICAR, resveratrol or MnTBAP; assay type: in vivo; conditions: for citrate synthase activities in muscle / insulin resistance / mitochondrial content in muscle: AICAR 500, resveratrol 400, MnTBAP 10 mg per kg body weight per day
Description: Oral glucose tolerance test (OGTT) and insulin tolerance test (ITT) were conducted by the method described in the following documents (Nature Med. 8, 1288-1295 (2002); Nature Med. 7, 941-946 (2001)), with some modifications. The areas of the glucose and insulin curves were calculated, respectively, by multiplying the cumulative mean height of the glucose values (1 mg/ml=1 cm) and insulin values (1 ng/ml=1 cm) by time (60 min=1 cm) (Nature Med. 13, 332-339 (2007); Nature Med. 7, 941-946 (2001)). The insulin resistance index was calculated from the product of the areas of glucose and insulin×10^−2 in the glucose tolerance test. The results were expressed as the percentage of the value of control littermates.

[2] = test system: C2C12 myocytes; assay: Mitochondrial content assay in C2C12 myocytes (mtDNA copy number, MitoTracker Green); assay type: cell-based, mouse; conditions: C2C12 myocytes preincubated with AraA 0.5 mM 1 hr or STO-609 1 μg/ml 6 hr, then adiponectin 48 hr
Description: Mice used were from 8 to 10 week old at the time of the experiment. […] Induction of myogenic differentiation using C2C12 cells was carried out according to the method described in the following document (Nature Med. 8, 1288-1295 (2002)). By day 5, the cells had differentiated into multinucleated contracting myocytes. C2C12 myocytes were used after myogenic differentiation in all experiments.
(§1) The mouse C2C12 myoblasts were grown in 90% Dulbecco's modified high glucose Eagle's medium containing 10% (v/v) fetal bovine serum. When the cells reached 80% confluent, the myoblasts were induced to differentiate into myocytes by replacing the medium with a low serum differentiation medium (98% Dulbecco's modified high glucose Eagle's medium, 2.5% (v/v) horse serum). The medium was changed daily. The C2C12 cells were transfected by using Pofectamine 2000 (Invitrogen) and following the manufacturer's instructions.
(§2) Mitochondrial content assays were carried out as described in the following document (Cell Metab. 4, 75-87 (2006)), with slight modifications. Quantification of the mitochondrial content was conducted by using mtDNA and MitoTracker Green probe (Molecular Probes) according to the method as described in the following document (Obes. Res. 13, 574-581 (2005)). MitoTracker Green probe preferentially accumulates in mitochondria regardless of the mitochondrial membrane potential and provides an accurate assessment of mitochondrial mass. Cells were washed with PBS and after addition of 100 nM MitoTracker Green FM (Molecular Probes), incubated at 37° C. for 30 min. Cells were harvested by using trypsin/EDTA and resuspended in PBS. Fluorescence intensity was detected with excitation and emission wavelengths of 490 and 516 nm, respectively, and the values thus measured were corrected for total protein (mg/ml).

[3] = test system: PGC-1α; assay: PGC-1α (Ppargc1a mRNA) expression in C2C12 myocytes; assay type: cell-based, mouse; conditions: C2C12 myocytes preincubated with AraA 0.5 mM 1 hr, STO-609 1 μg/ml 6 hr or EGTA 5 mM 20 min, then adiponectin 10 μg/ml 1.5 hr
Description: Real-time PCR was carried out according to the method described in the following documents (Nature Med. 13, 332-339 2007); Nature 423, 762-769 (2003); J. Biol. Chem. 281, 8748-8755 (2006)). Total RNA was prepared from cells or tissues by using Trizol (Invitrogen) according to the manufacturer's instructions. Quantification of mRNA was conducted using a real-time PCR method (Nature 423, 762-769 (2003)) with slight modifications. The procedures used for immunoblotting are described in the following documents (Nature Med. 7, 941-946 (2001); J. Biol. Chem. 281, 26602-26614 (2006); J. Biol. Chem. 281, 8748-8755 (2006)). The livers or muscles were freeze-clamped in liquid nitrogen in situ (Nature Med. 7, 941-946 (2001); J. Biol. Chem. 281, 26602-26614 (2006); J. Biol. Chem. 281, 8748-8755 (2006)). The mouse C2C12 myoblasts were grown in 90% Dulbecco's modified high glucose Eagle's medium containing 10% (v/v) fetal bovine serum. When the cells reached 80% confluent, the myoblasts were induced to differentiate into myocytes by replacing the medium with a low serum differentiation medium (98% Dulbecco's modified high glucose Eagle's medium, 2.5% (v/v) horse serum). The medium was changed daily. The C2C12 cells were transfected by using Pofectamine 2000 (Invitrogen) and following the manufacturer's instructions.

[4] = test system: AMPK; assay: AMPK phosphorylation in C2C12 myocytes (immunoblotting); assay type: cell-based, mouse; conditions: for effect on adiponectin-induced increase in AMPK phosphorylation: C2C12 myocytes preincubated with 5 mM EGTA 20 min, 50 μM BAPTA-AM 30 min or 10 μM U73122 30 min, then adiponectin 30 μg/ml 5 min
Description: as §1

[5] = test system: muscle-R1KO mice; assay: Increased calcium influx experiment (Bay-K 8644 gelatin hydrogel) in muscle-R1KO mice; assay type: in vivo; conditions: 0.25 μM Bay-K 8644
Description: as §2
Citrate synthase activity was determined from the homogeneates by using a spectrophotometer according to the method described in the following documents (Cell Metab. 4, 75-87 (2006); Eur. J. Biochem. 10, 198-206 (1969); Obes Res 13, 574-581 (2005)). The citrate synthase activity was measured at 37° C. in 0.1M Tris-HCl (pH 8.3) assay buffer containing 0.12 mM 5,5′-dithio-bis(2-nitrobenzoic acid) and 0.6 mM oxaloacetate. After recording of absorbance at 412 nm in the first two minutes, the reaction was started with the addition of 3 mM acetyl-CoA and a change in absorbance was measured every 10 sec for 7 min.
Hydrogels were prepared by crosslinking aqueous gelatin solutions with glutaraldehyde according to the method described in the following document (J. Control Release 64, 133-142 (2000)). For incorporating Bay-K 8644 into the resulting gelatin hydrogels, 20 μl of Bay-K 8644 (0.25 μM) was added dropwise onto 20 mg of freeze-dried hydrogel and left it overnight at 4° C. Under anesthesia, the gelatin hydrogel having Bay-K 8644 incorporated therein was implanted under the skin. Then, the skin was carefully sutured with No. 4-0 nylon monofilament.

[6] = molecular target: T1, AdipoR1 (Mus musculus, UniProt Q91VH1); assay: Calcium imaging in C2C12 myocytes (fura-2); assay type: cell-based; parameters: endogenous in cells; host or cells: mouse C2C12 myocytes (differentiated from myoblasts)
T1 sequence (Q91VH1 1-375): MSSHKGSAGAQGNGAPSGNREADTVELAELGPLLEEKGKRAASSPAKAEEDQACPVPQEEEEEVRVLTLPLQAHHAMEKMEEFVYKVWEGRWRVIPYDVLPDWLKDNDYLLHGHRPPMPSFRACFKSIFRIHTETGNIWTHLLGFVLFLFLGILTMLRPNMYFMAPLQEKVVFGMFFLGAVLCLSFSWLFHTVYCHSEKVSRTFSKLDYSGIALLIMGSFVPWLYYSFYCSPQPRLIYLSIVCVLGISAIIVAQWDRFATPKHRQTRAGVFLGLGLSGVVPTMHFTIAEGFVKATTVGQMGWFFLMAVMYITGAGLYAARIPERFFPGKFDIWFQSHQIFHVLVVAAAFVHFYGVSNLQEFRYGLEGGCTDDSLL
Description: C212 myocytes cultured on glass base dishes (IWAKI) were treated with 2.5 μM fura-2/AM for 30 min. Fluorescence was measured with an Aquacosmos Calcium Imaging system (Hamamatsu Photonics). Ligands were delivered through the superfusing Ringer's solution (140 mM NaCl, 5.6 mM KCl, 5 mM HEPES, 2.0 mM sodium pyruvate, 1.25 mM KH2PO4, 2.0 mM CaCl2, 2.0 mM MgCl2, 9.4 mM D-glucose (pH 7.4)). For the calcium chelating experiment, EGTA solution (140 mM NaCl, 5.6 mM KCl, 5 mM HEPES, 2.0 mM sodium pyruvate, 1.25 mM KH2PO4, 2.0 mM MgCl2, 5.0 mM EGTA-2Na, 9.4 mM D-glucose (pH 7.4) was used for the bath solution. Fura-2 fluorescence ratios were calibrated to calcium ion signals.

[7] = test system: CaMKI, HDAC5; assay: Phosphorylation of CaMKI and HDAC5 in C2C12 myocytes (immunoblotting); assay type: cell-based, mouse; conditions: 5 mM EGTA
Description: as §1

[8] = molecular target: T2, mAdipoR1 (Mus musculus, UniProt Q91VH1); assay: Xenopus oocytes injected with AdipoR1 cRNA, two-electrode voltage clamp recording; assay type: cell-based; conditions: Xenopus oocytes expressing AdipoR1, 5 mM EGTA
T2 construct: expressed in transfected cells; host or cells: Xenopus oocytes (stage V to VII) injected with cRNA
T2 sequence (Q91VH1 1-375): T1 sequence (Q91VH1 1-375)
Description: Stage V to VII oocytes were treated with 2 mg/ml of collagenase S-1 (Nitta gelatin) in calcium ion-free saline solution (82.5 mM NaCl, 2 mM KCl, 1 mM MgCl2, and 5 mM HEPES, pH 7.5) for 1 to 2 hr at room temperature. The resulting oocytes were then microinjected with 50 ng of cRNA for mAdipoR1. The cRNA was synthesized from linearized modified pSPUTK. The injected oocytes were incubated for 3 days at 18° C. in a bath solution (88 mM NaCl, 1 mM KCl, 0.3 mM Ca(NO3)2, 0.4 mM CaCl2, 0.8 mM MgSO4, 2.4 mM NaHCO3, 15 mM HEPES, pH 7.6) supplemented with 10 μg/ml of penicillin and streptomycin.
Whole cell currents were recorded with a two-electrode voltage clamp technique. Intracellular glass electrodes were filled with 3M KCl. Signals were amplified with an OC-725C amplifier (Warner Instruments), low-pass filtered at 50 Hz, and digitized at 1 kHz. A control bath solution contained 115 mM NaCl, 2.5 mM KCl, 1.8 mM CaCl2, and 10 mM HEPES. It was titrated to pH 7.2 with NaOH. A calcium ion free solution containing 1.8 mM BaCl2 instead of CaCl2 was used. The inward current was monitored at a holding potential of −80 mV. Calcium ion activated Cl^− current was monitored by applying 500-mscc depolarizing pulses of +100 mV and +50 mV from the holding potential of −80 mV. Adiponectin was supplied to the superfusing bath solution via a silicon tube connected to computer-driven solenoid valves. Data acquisition and analysis were carried out using Digidata 1322A and pCLAMP software.

SMILES: NC(=O)c1ncn([C@@H]2O[C@H](CO)[C@@H](O)[C@H]2O)c1N [AICAR, 5-aminoimidazole-4-carboxamide-1-β-D-libocide]
- citrate synthase activities in muscle ([1]; muscle-R1KO mice, 2 weeks): increased
- insulin resistance ([1]; muscle-R1KO mice, 2 weeks): significantly ameliorated
- mitochondrial content in muscle ([1]; muscle-R1KO mice, 2 weeks): increased
- rescue of the AdipoR1 loss in muscle ([1]; muscle-R1KO mice, AICAR 500 mg per kg body weight per day, 2 weeks): significantly but partially rescued
- phosphorylation of AMPK in muscle ([1]; muscle-R1KO mice, AICAR 500 mg per kg body weight per day, 2 hours): significantly increased

SMILES: Nc1ncnc2c1ncn2[C@@H]1O[C@H](CO)[C@@H](O)[C@@H]1O [AraA]
- effect on adiponectin-induced increase in mitochondrial biogenesis [2]: almost completely abolished
- effect on PGC-1α expression induced by adiponectin [3]: only tended to decrease

SMILES: CC(=O)OCOC(=O)CN(CC(=O)OCOC(C)=O)c1ccccc1OCCOc1ccccc1N(CC(=O)OCOC(C)=O)CC(=O)OCOC(C)=O [BAPTA-AM, Bis-(o-aminophenoxy)ethane-N,N,N9,N9-tetra-acetic acid, tetraacetoxymethyl ester]
- effect on adiponectin-induced increase in AMPK phosphorylation [4]: partially suppressed

SMILES: COC(=O)C1=C(C)NC(C)=C([N+](=O)[O-])C1c1ccccc1C(F)(F)F (stereo not shown) [Bay-K 8644]
- CaMKKβ activity (phosphorylation of CaMKI) in skeletal muscle [5]: increase
- citrate synthase activities in muscle [5]: significantly enhanced
- insulin-stimulated phosphorylation of Akt in muscle [5]: significantly enhanced
- mitochondrial content in muscle [5]: significantly enhanced

SMILES: O=C(O)CN(CCOCCOCCN(CC(=O)O)CC(=O)O)CC(=O)O [EGTA]
- effect on adiponectin-induced increase in AMPK phosphorylation [4]: partially suppressed
- effect on phosphorylation of AMPK induced by AICAR ([4]; C2C12 myocytes, 5 mM EGTA, AICAR 1 mM 1 hr): had no effect
- effect on ionomycin-dependent phosphorylation of AMPK ([4]; C2C12 myocytes, 5 mM EGTA, ionomycin 1 μM): almost completely abolished
- effect on adiponectin-induced calcium ion response ([6]; 5 mM EGTA (removal of extracellular free calcium ions)): almost completely abolished
- effect on ATP-induced intracellular calcium ion release ([6]; EGTA): had no effect
- effect on increased CaMKI phosphorylation stimulated with adiponectin [7]: almost completely abolished
- effect on adiponectin-induced inward current responses [8]: almost completely abolishes
- effect on calcium-ion activated Cl- current responses to adiponectin [8]: almost completely abolished
- effect on PGC-1α expression induced by adiponectin [3]: effectively and almost completely abolished

SMILES: O=C(O)c1ccc(/C2=C3\C=CC(=N3)/C(c3ccc(C(=O)O)cc3)=c3/cc/c4[n]3[Mn]([Cl])[n]3c2ccc3/C(c2ccc(C(=O)O)cc2)=C2/C=CC(=N2)\C=4c2ccc(C(=O)O)cc2)cc1 [MnTBAP]
- ROS such as H2O2 in skeletal muscle ([1]; MnTBAP 10 mg per kg body weight per day, 2 weeks): significantly decreased
- citrate synthase activities in muscle ([1]; muscle-R1KO mice, 2 weeks): failed to significantly increase
- insulin resistance ([1]; muscle-R1KO mice, 2 weeks): tended to ameliorate
- mitochondrial content in muscle ([1]; muscle-R1KO mice, 2 weeks): failed to significantly increase

SMILES: O=C(O)c1ccc2c3c1cccc3c(=O)n1c3ccccc3nc21 [STO-609]
- effect on adiponectin-induced increase in mitochondrial biogenesis [2]: almost completely abolished
- effect on PGC-1α expression induced by adiponectin [3]: effectively and almost completely abolished

SMILES: COc1ccc2c(c1)CC[C@@H]1[C@@H]2CC[C@]2(C)[C@@H](NCCCCCCN3C(=O)C=CC3=O)CC[C@@H]12 [U73122]
- effect on adiponectin-induced increase in AMPK phosphorylation [4]: had little effect

SMILES: Oc1ccc(C=Cc2cc(O)cc(O)c2)cc1 [resveratrol]
- citrate synthase activities in muscle ([1]; muscle-R1KO mice, 2 weeks): increased
- insulin resistance ([1]; muscle-R1KO mice, 2 weeks): significantly ameliorated
- mitochondrial content in muscle ([1]; muscle-R1KO mice, 2 weeks): increased
